This assay deals with KRas G12D-mediated phosphorylation of ERK. The assay is described as follows: Inhibition of KRas G12D-mediated phosphorylation of ERK in AGS cells. It counts as cell-based. As to conditions: Homo sapiens; AGS cells expressing G12D, 3 hours, phospho-ERK normalized to GAPDH. The essentials: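 Fixed, methanol-permeabilized; phospho-ERK (Thr202/Tyr204) by in-cell immunofluorescence normalized to GAPDH. Percent of DMSO control, IC50 by 4-parameter fit.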

Where a name gives a salt, the structure may show the parent alone.

In general, IC50 refers to the concentration needed to halve the response being measured. As to `CC1CCCc2cccc(-c3ncc4c(N5CC6CCC(C5)N6)nc(OC[C@@H]5CCCN5C)nc4c3F)c21` (stereo partly drawn) [Example 133, 4-((1R,5S)-3,8-diazabicyclo[3.2.1]octan-3-yl)-8-fluoro-7-(8-methyl-5,6,7,8-tetrahydronaphthalen-1-yl)-2-(((S)-1-methylpyrrolidin-2-yl)methoxy)pyrido[4,3-d]pyrimidine], the 50% inhibitory concentration (IC50) was 2.05 µM.

Regarding `CN1C[C@H](F)C[C@H]1COc1nc(N2C[C@H]3CC[C@@H](C2)N3)c2cnc(-c3cccc4cccc(Cl)c34)c(F)c2n1` [Example 115, 4-((1R,5S)-3,8-diazabicyclo[3.2.1]octan-3-yl)-7-(8-chloronaphthalen-1-yl)-8-fluoro-2-(((2S,4R)-4-fluoro-1-methylpyrrolidin-2-yl)methoxy)pyrido[4,3-d]pyrimidine], the half-maximal inhibitory concentration (IC50) stood at 9.51 µM.

In turn, `Cn1cc([C@H]2CN3CCC[C@]3(COc3nc(N4CC5CCC(C4)N5)c4cnc(-c5cccc6cccc(Cl)c56)c(F)c4n3)C2)cn1` (stereo in doubt) [Example 220, 4-((1R,5S)-3,8-diazabicyclo[3.2.1]octan-3-yl)-7-(8-chloronaphthalen-1-yl)-8-fluoro-2-((2-(1-methyl-1H-pyrazol-4-yl)tetrahydro-1H-pyrrolizin-7a(5H)-yl)methoxy)pyrido[4,3-d]pyrimidine tris-hydrochloride salt] registered an IC50 of 1.34 µM.

In the case of `CCC1(N)CN(c2nc(N3C[C@H]4CC[C@@H](C3)N4)c3cnc(-c4cc(O)cc5ccccc45)c(F)c3n2)C1` [Example 126, 4-(2-(3-amino-3-ethylazetidin-1-yl)-4-((1R,5S)-3,8-diazabicyclo[3.2.1]octan-3-yl)-8-fluoropyrido[4,3-d]pyrimidin-7-yl)naphthalen-2-ol], it took 3.47 µM to reach half-maximal inhibition (IC50).

Take `Oc1cc(-c2ncc3c(N4C[C@H]5CC[C@@H](C4)N5)nc(OCC45CCCN4CCC5)nc3c2F)c2c(Cl)c(F)ccc2c1` [Example 245, 4-(4-((1R,5S)-3,8-diazabicyclo[3.2.1]octan-3-yl)-8-fluoro-2-((hexahydro-1H-pyrrolizin-7a-yl)methoxy)pyrido[4,3-d]pyrimidin-7-yl)-5-chloro-6-fluoronaphthalen-2-ol]: 0.0234 µM corresponded to half-maximal inhibition (IC50).

Consider `CCCc1cccc2cccc(-c3ncc4c(N5C[C@H]6CC[C@@H](C5)N6)nc(OCC56CCCN5CCC6)nc4c3F)c12` [Example 254, 4-((1R,5S)-3,8-diazabicyclo[3.2.1]octan-3-yl)-8-fluoro-2-((hexahydro-1H-pyrrolizin-7a-yl)methoxy)-7-(8-propylnaphthalen-1-yl)pyrido[4,3-d]pyrimidine], for which the half-inhibitory concentration (IC50) was 2.43 µM.

`Oc1ccc(C(F)(F)F)c(-c2ncc3c(N4C[C@H]5CC[C@@H](C4)N5)nc(OCC45CCCN4CCC5)nc3c2F)c1` [Example 373, 3-(4-((1R,5S)-3,8-diazabicyclo[3.2.1]octan-3-yl)-8-fluoro-2-((tetrahydro-1H-pyrrolizin-7a(5H)-yl)methoxy)pyrido[4,3-d]pyrimidin-7-yl)-4-(trifluoromethyl)phenol]: the half-maximal inhibitory concentration (IC50) is over 16.7 µM.

The molecule `CO[C@@H]1C[C@@H](COc2nc(N3C[C@H]4CC[C@@H](C3)N4)c3cnc(-c4cccc5cccc(Cl)c45)c(F)c3n2)N(C)C1` [Example 34, 4-((1R,5S)-3,8-diazabicyclo[3.2.1]octan-3-yl)-7-(8-chloronaphthalen-1-yl)-8-fluoro-2-(((2S,4R)-4-methoxy-1-methylpyrrolidin-2-yl)methoxy)pyrido[4,3-d]pyrimidine] returned an IC50 of 4.21 µM.

`C#Cc1cccc2cc(O)cc(-c3ncc4c(N5CC6CCC(C5)N6)nc(OC[C@@]56CCCN5C[C@H](OC)C6)nc4c3F)c12` (stereo in doubt) [Example 410, 4-(4-((1R,5S)-3,8-diazabicyclo[3.2.1]octan-3-yl)-8-fluoro-2-((2-methoxytetrahydro-1H-pyrrolizin-7a(5H)-yl)methoxy)pyrido[4,3-d]pyrimidin-7-yl)-5-ethynylnaphthalen-2-ol] gave an IC50 of 0.008 µM.

Turning to `Fc1c(-c2cccc3cccc(Cl)c23)ncc2c(N3C[C@H]4CC[C@@H](C3)N4)nc(OCC34CCCN3CCC4)nc12` [Example 45, 4-((1R,5S)-3,8-diazabicyclo[3.2.1]octan-3-yl)-7-(8-chloronaphthalen-1-yl)-8-fluoro-2-((tetrahydro-1H-pyrrolizin-7a(5H)-yl)methoxy)pyrido[4,3-d]pyrimidine], it took 0.84 µM to reach half-maximal inhibition (IC50).

`Fc1c(-c2cccc(Cl)c2Cl)ncc2c(N3C[C@H]4CC[C@@H](C3)N4)nc(OCC34CCCN3CCC4)nc12` [Example 277, 4-((1R,5S)-3,8-diazabicyclo[3.2.1]octan-3-yl)-7-(2,3-dichlorophenyl)-8-fluoro-2-((hexahydro-1H-pyrrolizin-7a-yl)methoxy)pyrido[4,3-d]pyrimidine] registered a half-inhibitory concentration (IC50) of 3.68 µM.

With `CN1CCC[C@H]1COc1nc(N2CC3CCC(C)(C2)N3)c2cnc(-c3cc(O)cc4ccccc34)c(F)c2n1` (stereo partly drawn) [Example 156, 4-(8-fluoro-4-(1-methyl-3,8-diazabicyclo[3.2.1]octan-3-yl)-2-(((S)-1-methylpyrrolidin-2-yl)methoxy)pyrido[4,3-d]pyrimidin-7-yl)naphthalen-2-ol bis(2,2,2-trifluoroacetate)], the IC50 is 1.79 µM.

As for `O=C(OC[C@H]1CC[C@@]2(COc3nc(N4CC5CCC(C4)N5)c4cnc(-c5cccc6cccc(Cl)c56)c(F)c4n3)CCCN12)N1CCCCC1` [Example 444, ((3R,7aR)-7a-(((4-(3,8-diazabicyclo[3.2.1]octan-3-yl)-7-(8-chloronaphthalen-1-yl)-8-fluoropyrido[4,3-d]pyrimidin-2-yl)oxy)methyl)hexahydro-1H-pyrrolizin-3-yl)methyl piperidine-1-carboxylate], the IC50 worked out at 0.365 µM.

The molecule `C#Cc1c(F)ccc2cccc(-c3ncc4c(N5C[C@H]6CC[C@@H](C5)N6)nc(OCC56CCCN5CCC6)nc4c3F)c12` [Example 189, 4-((1R,5S)-3,8-diazabicyclo[3.2.1]octan-3-yl)-7-(8-ethynyl-7-fluoronaphthalen-1-yl)-8-fluoro-2-((tetrahydro-1H-pyrrolizin-7a(5H)-yl)methoxy)pyrido[4,3-d]pyrimidine] showed a half-maximal inhibitory concentration (IC50) of 0.0241 µM.

In the case of `Cc1cccc(-c2ncc3c(N4C[C@H]5CC[C@@H](C4)N5)nc(OCC45CCCN4CCC5)nc3c2F)c1C` [Example 275, 4-((1R,5S)-3,8-diazabicyclo[3.2.1]octan-3-yl)-7-(2,3-dimethylphenyl)-8-fluoro-2-((hexahydro-1H-pyrrolizin-7a-yl)methoxy)pyrido[4,3-d]pyrimidine], half-maximal inhibition (IC50) was put at 7.06 µM.

`Cc1ccc(O)cc1-c1ncc2c(N3C[C@H]4CC[C@@H](C3)N4)nc(OCC34CCCN3CCC4)nc2c1F` [Example 256, 3-(4-((1R,5S)-3,8-diazabicyclo[3.2.1]octan-3-yl)-8-fluoro-2-((hexahydro-1H-pyrrolizin-7a-yl)methoxy)pyrido[4,3-d]pyrimidin-7-yl)-4-methylphenol]: the 50% inhibitory concentration (IC50) was over 16.7 µM.

The molecule `Oc1cc(-c2ncc3c(N4C[C@H]5CC[C@@H](C4)N5)nc(OCC45CCCN4CCC5)nc3c2F)c2c(Cl)cccc2c1` [Example 36, 4-(4-((1R,5S)-3,8-diazabicyclo[3.2.1]octan-3-yl)-8-fluoro-2-((tetrahydro-1H-pyrrolizin-7a(5H)-yl)methoxy)pyrido[4,3-d]pyrimidin-7-yl)-5-chloronaphthalen-2-ol] gave a half-inhibitory concentration (IC50) of 0.108 µM.

Molecule `Nc1nc(N2CC3CCC(C2)N3)c2cnc(-c3cc(O)cc4ccccc34)c(F)c2n1` [Example 182, 4-[2-amino-4-(3,8-diazabicyclo[3.2.1]octan-3-yl)-8-fluoro-pyrido[4,3-d]pyrimidin-7-yl]naphthalen-2-ol] displayed an IC50 of 13.5 µM.

On to `Fc1c(-c2cccc(Cl)c2C(F)(F)F)ncc2c(N3C[C@H]4CC[C@@H](C3)N4)nc(OCC34CCCN3CCC4)nc12` [Example 328, 4-((1R,5S)-3,8-diazabicyclo[3.2.1]octan-3-yl)-7-(3-chloro-2-(trifluoromethyl)phenyl)-8-fluoro-2-((tetrahydro-1H-pyrrolizin-7a(5H)-yl)methoxy)pyrido[4,3-d]pyrimidine], for which the IC50 came to 0.897 µM.

The molecule `CN1CCC[C@H]1COc1nc(N2C[C@H]3CC[C@@H](C2)N3)c2cnc(-c3cccc4c3C3(CC4)CC3)c(F)c2n1` [Example 162, 4-((1R,5S)-3,8-diazabicyclo[3.2.1]octan-3-yl)-7-(2′,3′-dihydrospiro[cyclopropane-1,1′-inden]-7′-yl)-8-fluoro-2-(((S)-1-methylpyrrolidin-2-yl)methoxy)pyrido[4,3-d]pyrimidine bis(2,2,2-trifluoroacetate)] returned a half-inhibitory concentration (IC50) of over 16.7 µM.

As for `Oc1cc(-c2ncc3c(N4C[C@H]5CC[C@@H](C4)N5)nc(OC[C@@H]4CCCN4)nc3c2F)c2ccccc2c1` [Example 50, 4-(4-((1R,5S)-3,8-diazabicyclo[3.2.1]octan-3-yl)-8-fluoro-2-(((S)-pyrrolidin-2-yl)methoxy)pyrido[4,3-d]pyrimidin-7-yl)naphthalen-2-ol], the 50% inhibitory concentration (IC50) came out at 15.4 µM.

In turn, `O[C@@H]1C[C@@H]2CN(c3nc(OCCn4ccnc4CF)nc4c(F)c(-c5cccc6cccc(Cl)c56)ncc34)C[C@H]1N2` [Example 168, (1R,5R,6R)-3-(7-(8-chloronaphthalen-1-yl)-8-fluoro-2-(2-(2-(fluoromethyl)-1H-imidazol-1-yl)ethoxy)pyrido[4,3-d]pyrimidin-4-yl)-3,8-diazabicyclo[3.2.1]octan-6-ol] showed an IC50 of over 16.7 µM.

For the molecule `O[C@@H]1C[C@@H]2CN(c3nc(OC[C@@]45CCCN4C[C@H](F)C5)nc4c(F)c(-c5cccc6cccc(Cl)c56)ncc34)C[C@H]1N2` [Example 395, (1R,5R,6R)-3-(7-(8-chloronaphthalen-1-yl)-8-fluoro-2-((2-fluorotetrahydro-1H-pyrrolizin-7a(5H)-yl)methoxy)pyrido[4,3-d]pyrimidin-4-yl)-3,8-diazabicyclo[3.2.1]octan-6-ol], the concentration for half-maximal inhibition (IC50) worked out at 1.09 µM.

As for `O=C(OC[C@H]1CC[C@@]2(COc3nc(N4CC5CCC(C4)N5)c4cnc(-c5cccc6cccc(Cl)c56)c(F)c4n3)CCCN12)N1CCCC1` [Example 443, ((3R,7aR)-7a-(((4-(3,8-diazabicyclo[3.2.1]octan-3-yl)-7-(8-chloronaphthalen-1-yl)-8-fluoropyrido[4,3-d]pyrimidin-2-yl)oxy)methyl)hexahydro-1H-pyrrolizin-3-yl)methyl pyrrolidine-1-carboxylate], it took 0.16 µM to reach half-maximal inhibition (IC50).

(Values after US11453683B1, “KRas G12D inhibitors” (Mirati Therapeutics, Inc., priority 2019, dated 2022).)
